Experimental data published in ChEMBL document CHEMBL1201862, “PubChem BioAssay data set” (2004).
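Assay format: 96-well plates, 48-hour exposure. Here, GI50 denotes the concentration required for 50% inhibition of growth.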 Calls of active or inactive are those of the source. Cut-off read from the data, not from the text of the source: active = GI50 up to about 1.1 µM and inactive = higher.

Legend:
Experiment in all cases: DTP human tumour cell line panel, 48 h
A498 = system: A498
M14 = system: M14
HOP-62 = system: HOP-62
IGROV-1 = system: IGROV-1
A549 = system: A549
OVCAR-4 = system: OVCAR-4
DMS-273 = system: DMS-273
CAKI-1 = system: CAKI-1
RXF 393 = system: RXF 393
HCT-15 = system: HCT-15
NCI-H226 = system: NCI-H226
HT-29 = system: HT-29
KM-20L2 = system: KM-20L2
KM12 = system: KM12
SR = system: SR
TK-10 = system: TK-10
M19-MEL = system: M19-MEL
SF-539 = system: SF-539

With CC(=O)c1sc(Nc2nnc(-c3ccc(-c4nnc(Nc5nc(C)c(C(C)=O)s5)o4)cc3)o2)nc1C the GI50 (A498) was > 100 µM (inactive), the GI50 (M14) was > 100 µM (inactive) and the GI50 (HOP-62) was > 100 µM (inactive). For the same molecule, the GI50 (IGROV-1) was > 100 µM (inactive), the GI50 (A549) was > 10 µM (inactive) and the GI50 (OVCAR-4) was > 100 µM (inactive). The GI50 (DMS-273) was > 100 µM (inactive), the GI50 (CAKI-1) was > 10 µM (inactive) and the GI50 (RXF 393) was > 100 µM (inactive). The GI50 (HCT-15) was greater than 100 µM, the GI50 (NCI-H226) was > 100 µM (inactive) and the GI50 (HT-29) was > 100 µM (inactive). The GI50 (KM-20L2) was > 100 µM (inactive), the GI50 (KM12) was > 10 µM (inactive) and the GI50 (SR) was > 100 µM (inactive). The GI50 (TK-10) was > 100 µM (inactive).
For O=c1ccc(=O)c2c(=O)c3ccccc3c(=O)c1=2, the GI50 (A498) was > 100 µM (inactive), the GI50 (M19-MEL) was 14.3 µM (inactive) and the GI50 (M14) was 46 µM (inactive). The GI50 (HOP-62) was 36.6 µM (inactive), the GI50 (IGROV-1) was > 100 µM (inactive) and the GI50 (A549) was 37.4 µM (inactive). For the same molecule, the GI50 (OVCAR-4) was 61 µM (inactive), the GI50 (DMS-273) was 46.7 µM (inactive) and the GI50 (CAKI-1) was 50 µM (inactive). The GI50 (RXF 393) was 48.3 µM (inactive), the GI50 (HCT-15) was 46.2 µM and the GI50 (SF-539) was 26 µM (inactive). For the same molecule, the GI50 (KM12) was 37.1 µM (inactive) and the GI50 (TK-10) was > 100 µM (inactive).
With CN1c2ccccc2N(C)C23N(C)c4ccccc4N(C)C12N(C)c1ccccc1N3C (stereo not drawn) the GI50 (A498) was > 100 µM (inactive), the GI50 (M19-MEL) was > 100 µM (inactive) and the GI50 (M14) was > 100 µM (inactive). The GI50 (HOP-62) was 87.1 µM (inactive), the GI50 (IGROV-1) was > 100 µM (inactive) and the GI50 (A549) was > 100 µM (inactive). For the same molecule, the GI50 (DMS-273) was > 100 µM (inactive), the GI50 (CAKI-1) was > 100 µM (inactive) and the GI50 (RXF 393) was > 100 µM (inactive). For the same molecule, the GI50 (HCT-15) was greater than 100 µM, the GI50 (NCI-H226) was > 100 µM (inactive) and the GI50 (HT-29) was > 100 µM (inactive). The GI50 (SF-539) was > 100 µM (inactive), the GI50 (KM-20L2) was > 100 µM (inactive) and the GI50 (KM12) was > 100 µM (inactive). For the same molecule, the GI50 (TK-10) was > 100 µM (inactive).
CCC12CCC(O)C1N(C)CCC2Sc1ccccc1 (stereo not drawn) was tested, and the GI50 (A498) was > 100 µM (inactive), the GI50 (M19-MEL) was > 100 µM (inactive) and the GI50 (M14) was > 100 µM (inactive). The GI50 (HOP-62) was > 100 µM (inactive), the GI50 (IGROV-1) was > 100 µM (inactive) and the GI50 (A549) was > 100 µM (inactive). For the same molecule, the GI50 (OVCAR-4) was > 100 µM (inactive), the GI50 (DMS-273) was > 100 µM (inactive) and the GI50 (RXF 393) was > 100 µM (inactive). The GI50 (HCT-15) was greater than 100 µM, the GI50 (NCI-H226) was 23.4 µM (inactive) and the GI50 (HT-29) was 34.8 µM (inactive). For the same molecule, the GI50 (SF-539) was > 100 µM (inactive), the GI50 (KM-20L2) was 41.3 µM (inactive) and the GI50 (KM12) was 52.8 µM (inactive). For the same molecule, the GI50 (TK-10) was > 100 µM (inactive).
CC(C)OP(=O)(OC(C)C)/C(=N/Nc1ccc([N+](=O)[O-])cc1)NN was tested, and the GI50 (A498) was > 100 µM (inactive), the GI50 (M19-MEL) was > 100 µM (inactive) and the GI50 (M14) was > 100 µM (inactive). For the same molecule, the GI50 (HOP-62) was > 100 µM (inactive), the GI50 (A549) was 75.3 µM (inactive) and the GI50 (OVCAR-4) was > 100 µM (inactive). For the same molecule, the GI50 (DMS-273) was > 100 µM (inactive), the GI50 (CAKI-1) was > 100 µM (inactive) and the GI50 (HCT-15) was greater than 100 µM. For the same molecule, the GI50 (NCI-H226) was 0.592 µM (active), the GI50 (SF-539) was > 100 µM (inactive) and the GI50 (KM-20L2) was > 100 µM (inactive). For the same molecule, the GI50 (KM12) was > 100 µM (inactive), the GI50 (SR) was > 100 µM (inactive) and the GI50 (TK-10) was > 100 µM (inactive).
With O=C1OC(c2ccccc2)=N/C1=C/NC(Cc1c[nH]c2ccccc12)C(=O)O (stereo not drawn) the GI50 (A498) was > 100 µM (inactive), the GI50 (M19-MEL) was > 100 µM (inactive) and the GI50 (M14) was > 100 µM (inactive). For the same molecule, the GI50 (HOP-62) was > 100 µM (inactive), the GI50 (IGROV-1) was > 100 µM (inactive) and the GI50 (A549) was > 100 µM (inactive). The GI50 (OVCAR-4) was > 100 µM (inactive), the GI50 (DMS-273) was > 100 µM (inactive) and the GI50 (RXF 393) was > 100 µM (inactive). For the same molecule, the GI50 (HCT-15) was greater than 100 µM, the GI50 (NCI-H226) was > 100 µM (inactive) and the GI50 (HT-29) was > 100 µM (inactive). For the same molecule, the GI50 (SF-539) was > 100 µM (inactive), the GI50 (KM-20L2) was > 100 µM (inactive) and the GI50 (SR) was > 100 µM (inactive). For the same molecule, the GI50 (TK-10) was > 100 µM (inactive).
COC(=O)c1cc(CC(C)C)c2c(c1)[nH]c1ccccc12 was tested, and the GI50 (A498) was > 100 µM (inactive), the GI50 (M19-MEL) was > 100 µM (inactive) and the GI50 (M14) was > 100 µM (inactive). For the same molecule, the GI50 (IGROV-1) was > 100 µM (inactive), the GI50 (A549) was > 100 µM (inactive) and the GI50 (OVCAR-4) was > 100 µM (inactive). The GI50 (DMS-273) was 53.7 µM (inactive), the GI50 (CAKI-1) was > 100 µM (inactive) and the GI50 (HCT-15) was 52.1 µM. The GI50 (NCI-H226) was 28.7 µM (inactive), the GI50 (HT-29) was > 100 µM (inactive) and the GI50 (SF-539) was > 100 µM (inactive). The GI50 (KM-20L2) was > 100 µM (inactive), the GI50 (KM12) was 91.2 µM (inactive) and the GI50 (TK-10) was > 100 µM (inactive).
For Cc1cn([C@@H]2C[C@H](CO)[C@@H](O)C2)c(=O)[nH]c1=O, the GI50 (M19-MEL) was > 100 µM (inactive), the GI50 (M14) was > 100 µM (inactive) and the GI50 (HOP-62) was > 100 µM (inactive). The GI50 (IGROV-1) was > 100 µM (inactive), the GI50 (A549) was > 100 µM (inactive) and the GI50 (OVCAR-4) was > 100 µM (inactive). The GI50 (DMS-273) was > 100 µM (inactive), the GI50 (HCT-15) was greater than 100 µM and the GI50 (NCI-H226) was > 100 µM (inactive). For the same molecule, the GI50 (HT-29) was > 100 µM (inactive), the GI50 (SF-539) was > 100 µM (inactive) and the GI50 (KM-20L2) was > 100 µM (inactive). For the same molecule, the GI50 (KM12) was > 100 µM (inactive).
In the case of O=c1cc(-c2ccc(Cl)cc2)oc2cc(OCCCOc3ccc4c(=O)cc(-c5ccc(Cl)cc5)oc4c3)ccc12, the GI50 (M19-MEL) is reported as > 100 µM (inactive), the GI50 (M14) is reported as > 100 µM (inactive) and the GI50 (HOP-62) is reported as > 100 µM (inactive). The GI50 (IGROV-1) was > 100 µM (inactive), the GI50 (A549) was > 100 µM (inactive) and the GI50 (OVCAR-4) was > 100 µM (inactive). For the same molecule, the GI50 (DMS-273) was > 100 µM (inactive), the GI50 (CAKI-1) was > 100 µM (inactive) and the GI50 (RXF 393) was > 100 µM (inactive). For the same molecule, the GI50 (HCT-15) was greater than 100 µM, the GI50 (NCI-H226) was > 100 µM (inactive) and the GI50 (HT-29) was > 100 µM (inactive). The GI50 (SF-539) was > 100 µM (inactive), the GI50 (KM-20L2) was > 100 µM (inactive) and the GI50 (KM12) was > 100 µM (inactive). For the same molecule, the GI50 (SR) was > 100 µM (inactive) and the GI50 (TK-10) was > 100 µM (inactive).
